Columns and labels:
Format in all cases: cell-based
PAR2 (HT-29 cells) [1] = molecular target: T1, PAR2 (HT-29 cells) (Homo sapiens, UniProt P55085); test: Ca FLIPR TETRA assay, ANTAGONIST mode, activator 8 μM SLIGKV; details: HT-29 cells, activator 8 μM SLIGKV
T1 construct: host or cells: HT-29
T1 sequence (P55085 26-397): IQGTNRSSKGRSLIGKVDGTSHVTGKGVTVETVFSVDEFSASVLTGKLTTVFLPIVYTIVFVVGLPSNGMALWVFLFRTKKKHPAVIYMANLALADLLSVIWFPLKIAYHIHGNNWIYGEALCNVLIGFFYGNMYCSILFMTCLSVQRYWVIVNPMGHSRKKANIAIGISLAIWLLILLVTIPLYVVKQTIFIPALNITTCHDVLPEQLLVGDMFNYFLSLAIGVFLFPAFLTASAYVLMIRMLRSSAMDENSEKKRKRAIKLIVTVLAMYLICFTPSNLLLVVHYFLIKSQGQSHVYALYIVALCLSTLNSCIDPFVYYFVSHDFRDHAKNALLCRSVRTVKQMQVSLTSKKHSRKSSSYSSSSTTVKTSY
Method in brief: (§1)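 Inhibition of agonist-evoked calcium signals was measured in human HT-29 colon cells cultured overnight in 1% FBS McCoy's medium. Test compounds preincubated 30 min at r.t.; activators at final concentrations as stated for each readout.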

PAR2 (HT-29 cells) [2] = molecular target: T1, PAR2 (HT-29 cells); test: Ca FLIPR TETRA assay, ANTAGONIST mode, activator 3.1 U/mL trypsin; details: for IC50: HT-29 cells, activator 3.1 U/mL trypsin
Method in brief: as §1

[3] = tested on: Thrombin-stimulated Ca2+ response in HT-29 cells; test: Ca FLIPR TETRA assay, ANTAGONIST mode, activator 1 U/mL Thrombin; details: HT-29 cells, activator 1 U/mL Thrombin
Method in brief: as §1

[4] = tested on: UTP-stimulated Ca2+ response in HT-29 cells; test: Ca FLIPR TETRA assay, ANTAGONIST mode, activator 0.6 μM UTP; details: for IC50: HT-29 cells, activator 0.6 μM UTP
Method in brief: as §1

[5] = Method A: maximal concentration of antagonist 0.1, 1 or 2 μM
[6] = maximal antagonist concentration per Method (A: 0.1, 1 or 2 μM; B: 50 μM)

Compound | IC50 (PAR2 (HT-29 cells) [1]; [5]) [nM] | IC50 (PAR2 (HT-29 cells) [2]; [5]) [nM] | IC50 [3] [nM] | IC50 [4] [nM] | IC50 ([3]; Homo sapiens) [nM] | IC50 ([4]; Homo sapiens) [nM] | IC50 (PAR2 (HT-29 cells) [1]; [6]) [nM] | IC50 (PAR2 (HT-29 cells) [2]; [6]) [nM] | Trypsin, % @ 50 (PAR2 (HT-29 cells) [2]; @ 50 (μM)) [% @ 50] | inhibition at 50 µM ([4]; Homo sapiens, HT-29, @ 50 (μM)) [%]
Cc1ncc(N2CCN(C(=O)c3cc4nc(C5CCC(C)(C)CC5)cc(C(C)(C)C)c4o3)C(C)(C)C2)nc1C(=O)O [Example I-525] | 0.7 | 1.4 | 1600 | 1650 | – | – | – | – | – | –
CC1(C)CCC(c2cc(C(C)(C)C)c3oc(C(=O)N4CCN(c5cncc(C(=O)O)n5)CC4(C)C)cc3n2)CC1 [Example I-464] | 0.5 | 0.9 | – | – | 810 | 610 | – | – | – | –
CC(C)c1cc(-c2ccc(F)cc2)nc2cc(C(=O)N3CCN(C(=O)OC(C)(C)C)CC3(C)C)oc12 [Example I-6] | – | – | – | – | > 50000 | 36000 | 3.2 | 4.2 | – | –
CC(C)[C@@H](O)C(=O)N1CCN(C(=O)c2cc3nc(-c4ccc(F)cc4)cc(C4(C)CC4)c3o2)C[C@@H]1C [Example I-112] | – | – | – | – | 13000 | 11000 | 13 | 27 | – | –
CC(C)(C)c1cc(-c2ccc(Cl)c(F)c2)nc2cc(C(=O)N3CCN(C(=O)CC4(C(=O)O)CCCC4)CC3(C)C)oc12 [Example I-324] | 0.2 | 0.4 | – | – | > 2000 | > 2000 | – | – | – | –
CC(C)(C)c1cc(-c2ccc(Cl)cc2)nc2cc(C(=O)N3CCN(c4ncc(F)cn4)CC3(C)C)oc12 [Example I-370] | 17 | 17 | – | – | > 2000 | > 2000 | – | – | – | –
Cc1cnc(N2CCN(C(=O)c3cc4nc(-c5ccc(Cl)cc5)cc(C(C)(C)C)c4o3)C(C)(C)C2)nc1 [Example I-388] | 36 | 28.5 | – | – | > 2000 | > 2000 | – | – | – | –
CC(C)(C)c1cc(-c2ccc(Cl)c(F)c2)nc2cc(C(=O)N3CCN(c4ccnc(C(=O)O)c4)CC3(C)C)oc12 [Example I-261] | – | – | – | – | > 2000 | > 2000 | 45 | 31 | – | –
CCCC(CC)c1cc(-c2ccc(F)cc2)nc2cc(C(=O)N3CCNC(=O)C3(C)C)oc12 (stereo not drawn) [Example I-249] | – | – | – | – | > 2000 | > 2000 | 4 | 11 | – | –
CC(C)(C)c1cc(-c2ccc(Cl)cc2)nc2cc(C(=O)N3CCC(c4ncc(C(=O)O)cn4)CC3(C)C)oc12 (stereo not drawn) [Example I-429] | 0.4 | 0.5 | 400 | 440 | – | – | – | – | – | –
CN1CCN(C(=O)c2cc3nc(C4CCC(C)(C)CC4)cc(C(C)(C)C)c3o2)C(C)(C)C1=O [Example I-317] | 8.2 | 10 | – | – | > 2000 | > 2000 | – | – | – | –
CC1(c2nc(-c3ccc(F)cc3)nc3cc(C(=O)N4CCNC(=O)C4(C)C)oc23)CC1 [Example I-127] | – | – | – | – | > 50000 | > 50000 | 740 | – | 49 | –
Cc1cccnc1N1CCN(C(=O)c2cc3nc(-c4ccc(Cl)cc4)cc(C(C)(C)C)c3o2)C(C)(C)C1 [Example I-394] | 58 | 55 | – | – | > 2000 | > 2000 | – | – | – | –
Cc1nnc(C(=O)N2CCN(C(=O)c3cc4nc(-c5ccc(Cl)cc5)cc(C(C)(C)C)c4o3)C(C)(C)C2)[nH]1 [Example I-178] | – | – | – | – | > 1000 | > 1000 | 0.7 | 1 | – | –
CCc1cc(-c2ccc(F)cc2)nc2cc(C(=O)N3CCN(C(=O)[C@H]4C[C@](O)(C(F)(F)F)C4)CC3(C)C)oc12 [Example I-150] | – | – | – | – | > 1000 | > 1000 | 1.1 | 1.6 | – | –
CC1(c2cc(-c3ccc(F)cc3)nc3cc(C(=O)N4CCN(C(=O)[C@H](O)Cc5ccccc5)CC4(C)C)oc23)CC1 [Example I-41] | – | – | – | – | > 50000 | > 50000 | 6.5 | 8.5 | – | –
CC1(C)CCC(c2cc(C(C)(C)C)c3oc(C(=O)N4CCN(c5cn[nH]c5)CC4(C)C)cc3n2)CC1 [Example I-258] | – | – | – | – | > 2000 | > 2000 | 23 | 17 | – | –
CC[C@@H](O)C(=O)N1CCN(C(=O)c2cc3nc(-c4ccc(F)cc4)cc(C(C)C)c3o2)C(C)(C)C1 [Example I-61] | – | – | – | – | 17000 | 13000 | 4.8 | 11 | – | –

Compound | IC50 (PAR2 (HT-29 cells) [1]; [5]) [nM] | IC50 (PAR2 (HT-29 cells) [2]; [5]) [nM] | IC50 [3] [nM] | IC50 [4] [nM] | IC50 ([3]; Homo sapiens) [nM] | IC50 ([4]; Homo sapiens) [nM] | IC50 (PAR2 (HT-29 cells) [1]; [6]) [nM] | IC50 (PAR2 (HT-29 cells) [2]; [6]) [nM] | Trypsin, % @ 50 (PAR2 (HT-29 cells) [2]; @ 50 (μM)) [% @ 50] | inhibition at 50 µM ([4]; Homo sapiens, HT-29, @ 50 (μM)) [%]
CC(C)(C)c1cc(-c2ccc(F)cc2)nc2cc(C(=O)N3CCN(S(=O)(=O)C4CC4)CC3(C)C)oc12 [Example I-200] | – | – | – | – | > 1000 | > 1000 | 3 | 6 | – | –
CC1(C)CCC(c2cc(C(C)(C)C)c3oc(C(=O)N4CCN(c5ncc(-c6nnn[nH]6)cn5)CC4(C)C)cc3n2)CC1 [Example I-346] | 1.6 | 4.1 | – | – | 2100 | 1000 | – | – | – | –
CC(C)(C)c1cc(-c2ccc(F)cc2)nc2cc(C(=O)N3CCN(C(=O)c4n[nH]c(=O)[nH]4)CC3(C)C)oc12 [Example I-187] | – | – | – | – | > 1000 | > 1000 | 10 | 20 | – | –
CC(C)c1cc(-c2ccc(F)cc2)nc2cc(C(=O)N3CCN(C(=O)C4(O)CCC4)CC3)oc12 [Example I-92] | – | – | 7900 | 7400 | – | – | 4700 | 6200 | – | –
CC(C)(C)c1cc(-c2ccc(Cl)c(F)c2)nc2cc(C(=O)N3CCC(c4nc(C(=O)O)cs4)CC3(C)C)oc12 (stereo not drawn) [Example I-424] | 0.1 | 0.3 | 1800 | 1200 | – | – | – | – | – | –
CC(C)c1cc(-c2ccc(F)cc2)nc2cc(C(=O)N3CCN(C(=O)[C@H](O)CC(C)(C)C)CC3)oc12 [Example I-94] | – | – | – | – | 6700 | – | 1200 | 620 | – | 74
Cc1cc(C(=O)N2CCN(C(=O)c3cc4nc(-c5ccc(F)cc5)cc(C(C)(C)C)c4o3)C(C)(C)C2)no1 [Example I-186] | – | – | – | – | > 1000 | > 1000 | 0.7 | 1 | – | –
[2H]C([2H])([2H])N1CCN(C(=O)c2cc3nc(-c4cccc(Cl)c4)cc(C(C)(C)C)c3o2)C(C)(C)C1=O [Example I-238] | – | – | – | – | > 2000 | > 2000 | 18 | 28 | – | –
CCCCC(O)C(=O)N1CCN(C(=O)c2cc3nc(-c4ccc(F)cc4)cc(C4(C)CC4)c3o2)C(C)(C)C1 (stereo not drawn) [Example I-34] | – | – | – | – | > 25000 | 26000 | 4.6 | 5.9 | – | –
CC(C)(C)c1cc(-c2ccc(Cl)c(F)c2)nc2cc(C(=O)N3CCN(c4ccc(F)c(C(=O)O)n4)CC3(C)C)oc12 [Example I-381] | 0.9 | 2.7 | – | – | > 2000 | > 2000 | – | – | – | –
CC(C)(C)c1cc(-c2ccc(Cl)cc2)nc2cc(C(=O)N3CCN(c4ccc(-c5nnn[nH]5)cn4)CC3(C)C)oc12 [Example I-531] | 1.5 | 2.8 | – | – | > 2000 | > 2000 | – | – | – | –
CC1(c2cc(-c3ccc(F)cc3)nc3cc(C(=O)N4CCN(C(=O)C5CCOC5)CC4(C)C)oc23)CC1 (stereo not drawn) [Example I-60] | – | – | 14000 | 13000 | – | – | 48 | 67 | – | –
C=C(C)c1cc(-c2ccc(F)cc2)nc2cc(C(=O)N3CCN(C(=O)[C@H]4C[C@](O)(C(F)(F)F)C4)CC3(C)C)oc12 [Example I-143] | – | – | – | – | > 1000 | > 1000 | 2.1 | 2.2 | – | –
CC1(c2cc(-c3ccc(F)cc3)nc3cc(C(=O)N4CCN(C(=O)C5(O)CCOCC5)CC4(C)C)oc23)CC1 [Example I-57] | – | – | – | – | 6800 | 8600 | 53 | 77 | – | –
CC(C)(C)c1cc(C2CCC(F)(F)CC2)nc2cc(C(=O)N3CCN(C(=O)[C@H]4CC[C@@](C)(C(=O)O)CC4)C(=O)C3(C)C)oc12 [Example I-220] | – | – | > 2000 | > 2000 | – | – | 6.7 | 13 | – | –
COC(=O)C12CC(C(=O)N3CCN(C(=O)c4cc5nc(-c6ccc(F)cc6)cc(C(C)(C)C)c5o4)C(C)(C)C3)(C1)C2 [Example I-190] | – | – | – | – | 520 | 760 | 11 | 13 | – | –
CC(C)c1cc(-c2ccc(F)cc2)nc2cc(C(=O)N3CCN(C(=O)C4CCCCO4)[C@@H](C)C3)oc12 (stereo partly drawn) [Example I-88] | – | – | – | – | 17000 | 17000 | 160 | 340 | – | –
CC1(C)CCC(c2cc(C(C)(C)C)c3oc(C(=O)N4CCN(C(=O)CCC(C)(C)C(=O)O)CC4(C)C)cc3n2)CC1 [Example I-354] | 0.3 | 0.4 | – | – | > 2000 | > 2000 | – | – | – | –

Reference: patent US20180057505A1, “BICYCLIC HETEROARYL COMPOUNDS USEFUL AS INHIBITORS OF THE PAR-2 SIGNALING PATHWAY” (VERTEX PHARMACEUTICALS INCORPORATED, priority 2015, published 2018)
